Active and inactive are the calls of the source.
Columns and labels:
[1] = growth suppression of beta-catenin-knockout colon cells, dose response, cell-based, HCT116, human colon tumor (AID 1045); format: functional;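 also: HCT116 colon tumor cells with beta catenin knocked out; cells exposed to compound for 60 hours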
[2] = growth suppression of PTEN-null colon cells, dose response, cell-based, HCT116 PTEN knockout (AID 1047); format: functional;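 also: HCT116 colon tumor cells with PTEN knocked out; cells exposed to compound for 60 hours before readout; potency for loss of cell viability measured by luminescence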
[3] = Luminescence Cell-Based Dose Confirmation HTS to Identify Inhibitors of Platelet Dense Granule Release. [Related pubchem assays: 1663 (Primary HTS), 1678 (Summary of Project)]; format: functional
[4] = biological target: Luciferin 4-monooxygenase (Photinus pyralis, UniProt P08659); assay: firefly luciferase enzyme inhibitors, dose response, biochemical, luminescence (AID 1891)
Sequence of Luciferin 4-monooxygenase (P08659 whole entry): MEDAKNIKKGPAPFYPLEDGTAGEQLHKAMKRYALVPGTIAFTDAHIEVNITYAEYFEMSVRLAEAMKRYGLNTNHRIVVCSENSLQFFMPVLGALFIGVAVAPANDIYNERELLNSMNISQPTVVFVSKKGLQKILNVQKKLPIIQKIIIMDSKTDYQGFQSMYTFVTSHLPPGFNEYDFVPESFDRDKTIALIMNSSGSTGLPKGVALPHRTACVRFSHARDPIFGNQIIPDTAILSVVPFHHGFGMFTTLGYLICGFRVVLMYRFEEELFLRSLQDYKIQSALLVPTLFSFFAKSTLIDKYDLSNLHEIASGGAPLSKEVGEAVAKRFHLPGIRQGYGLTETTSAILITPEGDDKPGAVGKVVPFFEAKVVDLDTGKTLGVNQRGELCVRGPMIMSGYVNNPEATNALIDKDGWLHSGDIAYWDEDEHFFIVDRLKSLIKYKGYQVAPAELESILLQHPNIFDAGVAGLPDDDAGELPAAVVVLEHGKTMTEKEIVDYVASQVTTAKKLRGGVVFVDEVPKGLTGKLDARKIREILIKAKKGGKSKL

[5] = cytotoxicity toward NIH3T3 fibroblasts, dose response, counter-screen, cell-based, ATP luminescence, mouse fibroblasts (AID 2010); format: functional;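 also: cells exposed to compound for about 90 hours before reading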
[6] = inhibitors of intracellular T. cruzi replication, confirmation, NIH3T3 host cells, beta-gal luminescence (AID 2044); format: functional, cell-based;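 also: intracellular parasites grown in NIH/3T3 mouse fibroblasts as host cells; luminescent beta-galactosidase reporter signal from transgenic T. cruzi replicating inside host cells; inhibitors lower the luminescence signal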
Cytochrome P450 2C19 = Cytochrome P450 2C19 (Homo sapiens, UniProt P33261); assay: Cytochrome panel assay with activity outcomes. Panel member name: p450-cyp2c19 Compounds with AC50 equal or less than 10 uM are considered active; format: functional
Sequence of Cytochrome P450 2C19 (P33261 whole entry): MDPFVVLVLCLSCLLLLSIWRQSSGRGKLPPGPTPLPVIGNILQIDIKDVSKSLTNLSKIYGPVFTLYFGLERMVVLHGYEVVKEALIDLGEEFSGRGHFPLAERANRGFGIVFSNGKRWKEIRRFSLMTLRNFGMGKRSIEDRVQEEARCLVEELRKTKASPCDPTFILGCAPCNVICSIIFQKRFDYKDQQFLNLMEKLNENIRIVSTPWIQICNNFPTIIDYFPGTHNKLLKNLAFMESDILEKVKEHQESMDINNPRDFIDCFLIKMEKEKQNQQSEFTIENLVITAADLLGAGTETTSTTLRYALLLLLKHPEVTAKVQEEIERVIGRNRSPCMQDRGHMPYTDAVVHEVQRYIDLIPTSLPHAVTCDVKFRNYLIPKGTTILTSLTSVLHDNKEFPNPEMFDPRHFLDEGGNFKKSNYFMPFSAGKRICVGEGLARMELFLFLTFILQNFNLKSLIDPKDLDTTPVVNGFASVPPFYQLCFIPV

Cytochrome P450 3A4 = Cytochrome P450 3A4 (Homo sapiens, UniProt P08684);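 also: CYP3A4 tested as one member of a cytochrome P450 panel screen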
Sequence of Cytochrome P450 3A4 (P08684 whole entry): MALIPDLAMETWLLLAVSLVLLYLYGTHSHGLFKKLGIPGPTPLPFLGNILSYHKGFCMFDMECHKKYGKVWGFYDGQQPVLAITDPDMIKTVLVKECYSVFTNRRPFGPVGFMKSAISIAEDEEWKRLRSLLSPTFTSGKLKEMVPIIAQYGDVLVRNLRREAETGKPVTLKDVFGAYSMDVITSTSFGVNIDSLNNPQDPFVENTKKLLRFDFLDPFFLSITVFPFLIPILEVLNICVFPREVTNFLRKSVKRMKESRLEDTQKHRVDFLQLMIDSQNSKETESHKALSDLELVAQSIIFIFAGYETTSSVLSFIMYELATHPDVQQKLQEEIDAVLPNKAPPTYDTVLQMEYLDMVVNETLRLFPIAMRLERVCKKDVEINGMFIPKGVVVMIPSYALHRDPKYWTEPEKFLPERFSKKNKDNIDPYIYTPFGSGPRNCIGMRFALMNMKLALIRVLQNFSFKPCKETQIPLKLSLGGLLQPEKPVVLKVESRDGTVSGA

[7] = biological target: T1, Heat shock factor protein 1 (Mus musculus, UniProt P38532); assay: HSF1 potentiators in luciferase reporter cells, confirmation, cell-based, NIH3T3, luminescence, dose retest (AID 435004); format: functional;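 also: stress induced by proteasome inhibitor MG132 added 30 min after compound; luciferase reporter driven by HSF1 response element in NIH3T3 cells; actives raise luminescence as potentiators of the MG132 stress response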
T1 sequence (P38532 whole entry): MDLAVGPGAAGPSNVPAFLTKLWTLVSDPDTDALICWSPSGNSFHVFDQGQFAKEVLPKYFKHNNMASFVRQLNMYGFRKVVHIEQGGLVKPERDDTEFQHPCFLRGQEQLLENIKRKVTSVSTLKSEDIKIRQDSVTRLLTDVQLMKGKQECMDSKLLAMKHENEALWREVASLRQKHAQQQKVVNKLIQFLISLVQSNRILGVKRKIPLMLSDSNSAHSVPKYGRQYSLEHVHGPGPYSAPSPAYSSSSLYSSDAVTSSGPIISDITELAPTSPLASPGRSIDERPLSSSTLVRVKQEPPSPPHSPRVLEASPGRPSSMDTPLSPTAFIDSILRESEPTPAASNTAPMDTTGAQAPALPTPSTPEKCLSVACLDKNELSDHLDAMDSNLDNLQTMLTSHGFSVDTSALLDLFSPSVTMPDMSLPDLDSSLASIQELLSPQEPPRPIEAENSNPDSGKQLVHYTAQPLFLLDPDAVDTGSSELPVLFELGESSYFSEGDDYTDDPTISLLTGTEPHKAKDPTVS

[8] = Luminescence Cell-Based Dose Retest to Confirm Inhibitors of Cancer Stem Cells. [Related pubchem assays (depositor defined):AID2717, AID2721]; format: functional, Homo sapiens; settings: Homo sapiens
INS1 = assay: beta cell apoptosis inhibitors, cytokine rescue, dose response, luminescence, retest (AID 449756); format: functional, cell-based; settings: Rattus norvegicus;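 also: cell death triggered by IL-1 beta plus TNF-alpha plus IFN-gamma mixture; protective hits raise ATP signal compared with cytokine alone wells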
[9] = HEp-2 cell cytotoxicity, dose response, cytotoxicity control for RSV inhibitor project, HTS (AID 2410); format: functional; settings: human respiratory syncytial virus
[10] = system: Streptococcus sp. 'group A'; assay: growth inhibition of control SK(-) GAS strain, dose response, counter-screen for streptokinase expression inhibitor project, luminescence, kanamycin, BacTiterGlo, confirmation (AID 1900); format: functional, organism-based
Streptococcus = assay: Group A Streptococcus viability loss, dose response, counter-screen for streptokinase expression inhibitor project, luminescence, BacTiterGlo (AID 1915); format: functional, organism-based;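 also: potency for reduction of bacterial viability or growth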
Streptokinase A = biological target: T2, Streptokinase A (Streptococcus pyogenes serotype M1, UniProt P10520); assay: S. pyogenes streptokinase expression inhibitors, potency, dose response, plasminogen activation absorbance, OD405 (AID 1914); format: functional, Streptococcus pyogenes M1 GAS;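 also: secreted streptokinase activity via plasminogen activation per viability signal from cell pellet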
T2 sequence (P10520 whole entry): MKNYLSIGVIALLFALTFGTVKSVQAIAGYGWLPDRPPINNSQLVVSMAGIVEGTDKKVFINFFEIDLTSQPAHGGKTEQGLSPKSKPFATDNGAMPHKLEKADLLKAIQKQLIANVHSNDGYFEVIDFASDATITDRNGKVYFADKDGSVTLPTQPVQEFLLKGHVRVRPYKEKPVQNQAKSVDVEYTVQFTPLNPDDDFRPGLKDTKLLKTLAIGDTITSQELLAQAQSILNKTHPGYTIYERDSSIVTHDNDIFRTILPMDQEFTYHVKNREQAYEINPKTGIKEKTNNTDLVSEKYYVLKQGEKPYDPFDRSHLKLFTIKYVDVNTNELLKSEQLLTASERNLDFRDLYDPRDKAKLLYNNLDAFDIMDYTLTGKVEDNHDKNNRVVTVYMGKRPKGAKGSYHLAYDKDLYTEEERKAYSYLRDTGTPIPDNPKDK

O=[N+]([O-])c1cccc(/C=C/c2nc(/C=N/c3ccc4ccccc4c3)c(O)o2)c1
EC50 [1]: 18 µM (active)
EC50 [2]: 12.8 µM (active)

COc1cc(C2c3c(-c4cc(Cl)c(C)cc4O)n[nH]c3C(=O)N2Cc2cccnc2)ccc1O (stereo not drawn)
EC50 [3]: 85 µM (active)
EC50 [4]: > 112 µM (not active)

Cc1ccc(NS(=O)(=O)c2cccc(C(=O)N3CCCCCCC3)c2)cc1
EC50 [3]: > 112 µM (not active)
EC50 [4]: > 112 µM (not active)

Cc1cc(NC(=O)Cn2nc(C)c([N+](=O)[O-])c2C)no1
EC50 [3]: > 112 µM (not active)
EC50 [4]: > 112 µM (not active)

COc1ccc(OC)c2sc(NC(=O)CCS(=O)(=O)c3ccccc3)nc12
EC50 [1]: 62 µM (active)
EC50 [2]: 81.3 µM (active)

CC(Nc1nc(N2CCCC2)nc2ccccc12)c1ccccc1 (stereo not drawn)
EC50 [5]: 55.9 µM (active)
EC50 [1]: 4.31 µM (active)
EC50 [2]: 5.65 µM (active)
EC50 [6]: 0.568 µM (active)

Cc1nc2ccccc2n1CC(=O)N/N=C\c1ccccn1
AC50 (Cytochrome P450 2C19): inconclusive

c1ccc2[nH]c(-c3nc4ccccc4[nH]3)nc2c1
EC50 [3]: 3.25 µM (active)
EC50 [4]: 2.11 µM (active)

COCCn1c(=O)c(-c2cc(F)cc(F)c2)nc2cncnc21
AC50 (Cytochrome P450 3A4): 15.8 µM (inconclusive)

CC1CCN(C(c2ccc(N(C)C)cc2)c2nnnn2Cc2ccccc2)CC1 (stereo not drawn)
EC50 [7]: > 260 µM (inactive)

Cc1c(C(=O)Nc2ccc(-c3nnc4n3CCCCC4)cc2)oc2c1ccc1ccccc12
EC50 [5]: > 60 µM (not active)
EC50 [1]: 20.9 µM (active)
EC50 [2]: 19.8 µM (active)
EC50 [6]: 1.45 µM (active)
AC50 [8]: 2.48 µM (active)

CC[C@]1(c2ccccc2OC)ON(c2ccccc2C(F)(F)F)C1=O
AC50 (INS1): 1.75 µM (active)

COc1ccc(Cl)cc1NC(=O)c1cc(S(=O)(=O)N2CCCC2)cn1C
EC50 [3]: > 112 µM (not active)
EC50 [4]: > 112 µM (not active)

OC(COc1cccc2ccccc12)CN1CCN(c2ccc(Cl)cc2)CC1 (stereo not drawn)
CC50 [9]: 12 µM (active)
EC50 [10]: 19.7 µM (active)
EC50 (Streptococcus): 34.3 µM (active)
EC50 (Streptokinase A): 31.1 µM (active)
AC50 [8]: 6.37 µM (active)

CN(C)CCNc1ccccn1
AC50 (Cytochrome P450 2C19): inconclusive

CCOC(=O)C1=C(c2ccccc2)N=c2s/c(=C\c3cccc(O)c3)c(=O)n2C1c1cccs1 (stereo not drawn)
EC50 [1]: 15.1 µM (active)
EC50 [2]: 15 µM (active)
AC50 [8]: 2.94 µM (active)

Oc1nc2cc(NC(S)=Nc3ccccc3Cl)ccc2[nH]1
EC50 [3]: > 112 µM (not active)

CCCNC(=O)OC[C@@H]1O[C@H](CCON=C(C)C)C=C[C@@H]1Oc1ccc(OC)cc1
AC50 (Cytochrome P450 3A4): 3.98 µM (inconclusive)

O=C(c1ccco1)N1CCC2(CCCN(c3ccccc3)C2)CC1
AC50 (Cytochrome P450 3A4): 15.8 µM (inconclusive)

CC(C)(C)NC(=O)C(c1ccccn1)N(C(=O)C1CSC(=O)C1)c1ccc(F)cc1 (stereo not drawn)
AC50 (Cytochrome P450 3A4): 0.794 µM (inconclusive)

Fc1ccc2nc(Nc3nc4c(F)cc(F)cc4s3)sc2c1
AC50 (INS1): 7.02 µM (active)

Cc1cccc(OCC(=O)Nc2ccc3c(c2)nc(CCN2CCCCC2)n3C)c1
EC50 [7]: > 260 µM (inactive)

CCc1ccc2c(c1)C1(NN=C(c3ccc(C)cc3)S1)C(=O)N2 (stereo not drawn)
EC50 [1]: 2.81 µM (active)
EC50 [2]: 4.58 µM (active)

C=C(CC1([C@@H](NP(=O)(c2ccccc2)c2ccccc2)[C@H]2C[C@@H]2CCCC)CC1)c1ccccc1
EC50 [10]: 2.27 µM (active)
EC50 (Streptococcus): 4.4 µM (active)
EC50 (Streptokinase A): > 150 µM (not active)
AC50 [8]: 3.22 µM (active)
AC50 (Cytochrome P450 2C19; read-out: AC50): 7.94 µM (inconclusive)

CC(C)NC(=O)CN(C(=O)CCC(=O)Nc1nccs1)c1ccc2c(c1)OCO2
EC50 [7]: > 260 µM (inactive)

O=C1COc2ccc(C(=O)COC(=O)c3cc(S(=O)(=O)N4CCOCC4)ccc3F)cc2N1
EC50 [3]: 22.9 µM (active)
EC50 [4]: > 112 µM (not active)

O=C(/C=C/c1ccc(-c2ccccc2)cc1)NCc1cccnc1
AC50 (INS1): 7.49 µM (active)
